The values that follow come from US10183950B2, “Thienopyrimidine inhibitors of atypical protein kinase C” (Cancer Research Technology Limited, priority 2011, dated 2019).

One assay concerns the target T1, full-length human PKCι (Homo sapiens, UniProt P41743).
T1 construct: Recombinant, full-length human PKCι expressed in Sf21 insect cells is also commercially available; purchased; host or cells: Sf21 insect cells
T1 sequence (P41743 1-596): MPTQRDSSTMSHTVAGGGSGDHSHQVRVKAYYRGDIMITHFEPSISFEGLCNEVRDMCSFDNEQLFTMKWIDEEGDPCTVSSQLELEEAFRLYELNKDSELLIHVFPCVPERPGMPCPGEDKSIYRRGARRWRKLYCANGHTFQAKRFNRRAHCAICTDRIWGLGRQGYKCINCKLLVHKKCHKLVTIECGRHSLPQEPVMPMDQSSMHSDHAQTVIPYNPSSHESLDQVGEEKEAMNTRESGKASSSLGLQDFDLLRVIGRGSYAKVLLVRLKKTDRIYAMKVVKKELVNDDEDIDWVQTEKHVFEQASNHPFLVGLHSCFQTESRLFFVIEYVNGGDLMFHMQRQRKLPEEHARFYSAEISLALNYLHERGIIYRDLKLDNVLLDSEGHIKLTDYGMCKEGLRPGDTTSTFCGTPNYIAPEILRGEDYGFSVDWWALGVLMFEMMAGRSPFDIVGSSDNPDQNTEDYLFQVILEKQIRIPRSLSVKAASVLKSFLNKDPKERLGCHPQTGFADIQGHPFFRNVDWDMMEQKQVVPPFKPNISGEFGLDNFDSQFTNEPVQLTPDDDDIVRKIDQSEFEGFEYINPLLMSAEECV
Description: PKCι IC50 IMAP fluorescence polarisation assay, full-length enzyme. The format is biochemical. The settings on record: full length PKCi at 15 μM ATP; read-out: IC50 in IMAP assay against full length PKCi. The procedure:
Assays are based on the ability of PKCι to phosphorylate a commercially available peptide substrate in vitro. […] Recombinant, full-length human PKCι expressed in Sf21 insect cells is also commercially available. Recombinant, kinase-domain human PKCι is expressed and purified in-house.
The procedure below explains how dose response curves for inhibitors of PKCι are obtained.
Compounds to be tested are dissolved in 100% DMSO. […] 1 μl is plated into 384 well black low-binding flat bottomed assay plates which are used immediately. Dilutions and additions of compound to assay plates are carried out using Matrix WellMate® and Matrix PlateMate® Plus liquid handling systems.
The final concentration of peptide substrate in the assay is 100 nM. […] Relevant controls are included, namely no compound and no enzyme. […] The reaction is allowed to incubate for 60 minutes at room temperature, before the reaction is stopped and developed by the addition of 20 μl IMAP™ development reagent (Molecular Devices). IMAP development reagent consists of 0.25% (v/v) IMAP progressive binding reagent, 17% (v/v) IMAP progressive binding buffer A and 3% (v/v) IMAP progressive binding buffer B. The plates are then incubated for 2 hours at room temperature before being read using an appropriate plate reader, for example a Molecular Devices HT Analyst or a BMG Pherastar.
In general terms: Polarisation of emitted light reports the rotation of a fluorescent probe.
In general, IC50 refers to the concentration needed to halve the response being measured. `Cc1sc2c(NCC(C)N)nc(-c3ccncc3)nc2c1Br` (stereo in doubt) [compound 330, (R)-N*1*-(7-Bromo-6-methyl-2-pyridin-4-yl-thieno[3,2-d]pyrimidin-4-yl)-propane-1,2-diamine]: the IC50 fell in the range of 1000 to 10000 nM.
For the compound `NC(CNc1nc(-c2ccncc2F)nc2c(-c3cncnc3)csc12)Cc1ccccc1` (stereo in doubt) [compound 422, (R)-N*1*-[2-(3-Fluoro-pyridin-4-yl)-7-pyrimidin-5-yl-thieno[3,2-d]pyrimidin-4-yl]-3-phenyl-propane-1,2-diamine], the IC50 is 1000 to 10000 nM.
On the same count and under the same terms, under `NC(CNc1nc(-c2ccncc2F)nc2c(-c3cccnc3)csc12)Cc1ccccc1` (stereo in doubt) [compound 423, (R)-N*1*-[2-(3-Fluoro-pyridin-4-yl)-7-pyridin-3-yl-thieno[3,2-d]pyrimidin-4-yl]-3-phenyl-propane-1,2-diamine] stands 1000 to 10000 nM.
Regarding `NC(CNc1nc(-c2ccncc2F)nc2c(-c3ccc(CO)cc3)csc12)Cc1ccccc1` (stereo in doubt) [compound 424, {4-[4-((R)-2-Amino-3-phenyl-propylamino)-2-(3-fluoro-pyridin-4-yl)-thieno[3,2-d]pyrimidin-7-yl]-phenyl}-methanol], the IC50 is 1000 to 10000 nM.
`NC(CNc1nc(-c2ccncc2F)nc2c(-c3cccc(CO)c3)csc12)Cc1ccccc1` (stereo in doubt) [compound 425, {3-[4-((R)-2-Amino-3-phenyl-propylamino)-2-(3-fluoro-pyridin-4-yl)-thieno[3,2-d]pyrimidin-7-yl]-phenyl}-methanol]: the IC50 is 1000 to 10000 nM.
As to `NC(CNc1nc(-c2ccncc2F)nc2c(-c3ccoc3)csc12)Cc1ccccc1` (stereo in doubt) [compound 426, (R)-N*1*-[2-(3-Fluoro-pyridin-4-yl)-7-furan-3-yl-thieno[3,2-d]pyrimidin-4-yl]-3-phenyl-propane-1,2-diamine], the IC50 is 100 to 1000 nM.
Same read-out and setting: in the case of `NCc1ccc(-c2csc3c(NCC(N)Cc4ccccc4)nc(-c4ccncc4F)nc23)cc1` (stereo in doubt) [compound 427, (R)-N*1*-[7-(4-Aminomethyl-phenyl)-2-(3-fluoro-pyridin-4-yl)-thieno[3,2-d]pyrimidin-4-yl]-3-phenyl-propane-1,2-diamine] it was 1000 to 10000 nM; in that of `Cc1noc(C)c1-c1csc2c(NCC(N)Cc3ccccc3)nc(-c3ccncc3F)nc12` (stereo in doubt) [compound 428, (R)-N*1*-[7-(3,5-Dimethyl-isoxazol-4-yl)-2-(3-fluoro-pyridin-4-yl)-thieno[3,2-d]pyrimidin-4-yl]-3-phenyl-propane-1,2-diamine], 1000 to 10000 nM.
Same read-out and setting: in the case of `NC(CNc1nc(-c2ccncc2F)nc2c(-c3ccncc3)csc12)Cc1ccccc1` (stereo in doubt) [compound 429, (R)-N*1*-[2-(3-Fluoro-pyridin-4-yl)-7-pyridin-4-yl-thieno[3,2-d]pyrimidin-4-yl]-3-phenyl-propane-1,2-diamine] it was 1000 to 10000 nM.
With `NC(CNc1nc(-c2ccncc2F)nc2c(-c3ccc(F)cc3)csc12)Cc1ccccc1` (stereo in doubt) [compound 430, (R)-N*1*-[7-(4-Fluoro-phenyl)-2-(3-fluoro-pyridin-4-yl)-thieno[3,2-d]pyrimidin-4-yl]-3-phenyl-propane-1,2-diamine], the IC50 lay in the range of 1000 to 10000 nM.
With `NC(CNc1nc(-c2ccncc2F)nc2c(-c3ccsc3)csc12)Cc1ccccc1` (stereo in doubt) [compound 431, (R)-N*1*-[2-(3-Fluoro-pyridin-4-yl)-7-thiophen-3-yl-thieno[3,2-d]pyrimidin-4-yl]-3-phenyl-propane-1,2-diamine], the IC50 was in the range of 1000 to 10000 nM.
With `NC(CNc1nc(-c2ccncc2F)nc2c(-c3ccco3)csc12)Cc1ccccc1` (stereo in doubt) [compound 432, (R)-N*1*-[2-(3-Fluoro-pyridin-4-yl)-7-furan-2-yl-thieno[3,2-d]pyrimidin-4-yl]-3-phenyl-propane-1,2-diamine], the IC50 lay within 100 to 1000 nM.

Still in this assay, the particulars now being: full length PKCi at 15 μM ATP; read-out: IC50 in IMAP assay against full length PKCi (Activity).
Take `NC(CNc1nc(-c2ccncc2)nc2sc3c(c12)CCCC3)Cc1c[nH]c2ccccc12` (stereo in doubt) [compound 63, (S)-3-(1H-Indol-3-yl)-N*1*- (2-pyridin-4-yl-5,6,7,8-tetrahydro-benzo[4,5]thieno[2,3-d]pyrimidin-4-yl)-propane-1,2-diamine]: the IC50 is 1000 to 10000 nM.
Still for that read-out and setting: under `NCCNc1nc(-c2ccncc2)nc2sc3c(c12)CCCC3` [compound 12, N*1*-(2-pyridin-4-yl-5,6,7,8-tetrahydro-benzo[4,5]thieno[2,3-d]pyrimidin-4-yl)-ethane-1,2-diamine] stands 100 to 1000 nM; under `NCCNc1nc(-c2ccncc2)nc2sc3c(c12)CCN(C(=O)c1ccccc1)C3` [compound 27, [4-(2-Amino-ethylamino)-2-pyridin-4-yl-5,8-dihydro-6H-pyrido[4′,3′:4,5]thieno[2,3-d]pyrimidin-7-yl]-phenyl-methanone], 10000 to 40000 nM.
Consider `NCCNc1nc(-c2ccncc2)nc2sc3c(c12)CCC1(C3)OCCO1` [compound 42], for which the IC50 was in the range of 1000 to 10000 nM.
On the same count and under the same terms, in the case of `CC1(C)CCc2c(sc3nc(-c4ccncc4)nc(NCCN)c23)C1` [compound 43, N*1*-(7,7-Dimethyl-2-pyridin-4-yl-5,6,7,8-tetrahydro-benzo[4,5]thieno[2,3-d]pyrimidin-4-yl)-ethane-1,2-diamine] it was 1000 to 10000 nM; in that of `NCCNc1nc(-c2ccncc2)nc2sc3c(c12)CCSC3` [compound 44, N*1*-(2-Pyridin-4-yl-5,8-dihydro-6H-thio-pyrano[4′,3′:4,5]thieno[2,3-d]pyrimidin-4-yl)-ethane-1,2-diamine], 1000 to 10000 nM.
Same read-out and setting: in the case of `NCCNc1nc(-c2ccncc2)nc2sc3c(c12)CCOC3` [compound 45, N*1*-(2-Pyridin-4-yl-5,8-dihydro-6H-pyrano[4′3′:4,5]thieno[2,3-d]pyrimidin-4-yl)-ethane-1,2-diamine] it was 10000 to 40000 nM; in that of `Cc1ccc(C[C@H](N)CNc2nc(-c3ccncc3)nc3sc4c(c23)CCCC4)cc1` [compound 46], 1000 to 10000 nM.
Still for that read-out and setting: under `COc1ccc(C[C@H](N)CNc2nc(-c3ccncc3)nc3sc4c(c23)CCCC4)cc1` [compound 47, (S)-3-(4-Methoxy-phenyl)-N*1*-(2-pyridin-4-yl-5,6,7,8-tetrahydro-benzo[4,5]thieno[2,3-d]pyrimidin-4-yl)-propane-1,2-diamine] stands 100 to 1000 nM.
Consider `Cc1cccc(C[C@H](N)CNc2nc(-c3ccncc3)nc3sc4c(c23)CCCC4)c1` [compound 48, (S)-N*1*-(2-Pyridin-4-yl-5,6,7,8-tetrahydro-benzo[4,5]thieno[2,3-d]pyrimidin-4-yl)-3-m-tolyl-propane-1,2-diamine], for which the IC50 lay in the range of 100 to 1000 nM.
On the same count and under the same terms, in the case of `COc1ccccc1C[C@H](N)CNc1nc(-c2ccncc2)nc2sc3c(c12)CCCC3` [compound 49, (S)-3-(2-methoxy-phenyl)-N*1*-(2-pyridin-4-yl-5,6,7,8-tetrahydro-benzo[4,5]thieno[2,3-d]pyrimidin-4-yl)-propane-1,2-diamine] it was 1000 to 10000 nM; in that of `N[C@H](CNc1nc(-c2ccncc2)nc2sc3c(c12)CCCC3)Cc1ccc(F)cc1` [compound 50, (S)-3-(4-Fluoro-phenyl)-N*1*-(2-pyridin-4-yl-5,6,7,8-tetrahydro-benzo[4,5]thieno[2,3-d]pyrimidin-4-yl)-propane-1,2-diamine], 1000 to 10000 nM.
